Source: US20060034807A1, “Innervated artificial tissues and uses thereof” (Ottawa Health Research Institute, priority 2002, published 2006)

Experiments:
HUVEC = assay: Effect of growth factors and retinyl acetate on angiogenesis in the sclera model; format: cell-based, Human
Procedure: The fibrinogen solution (3 mg/ml) was mixed with the thrombin solution (1.75 mg/ml) at a ratio of 1:0.03 v/v in wells of different sizes. Within a minute, enzymatic polymerization of fibrinogen gave fibrin gels under gentle agitation at 37° C. To incorporate endothelial cells in the fibrin matrix and to induce angiogenesis, endothelial cells were firstly seeded on the bottom of gelatin-coated wells at high density to provide a confluent monolayer at 48 hours. […] Fibrin gels were obtained again within a minute. Within 2 weeks of culture at 37° C. with 5% CO2, tube like vessels were generated within the matrix that associated together in order to form cord structures. These were visible by light microscopy and were counted in order to give an indication of vessel numbers. A combinatorial approach was utilized to evaluate what factors are required to achieve the optimal number of blood vessels within this sclera model. The pseudo sclera was generated as per Section 3.1.3. […] The effectiveness of the growth factors in positively affecting angiogenesis was evaluated by counting the number of tubes identified in a dish by brightfield microscopy. […] The effect of RA on angiogenesis was evaluated in the system described above. […] Blood vessel formation was evaluated by counting the number of vessels within a treated dish. […]

[1] = tested on: innervated TE cornea constructs; assay: Substance P release from innervated TE corneas (EIA); format: cell-based, chick; details: for SP release versus controls: 1% capsaicin or 50 μM veratridine, P<0.05
Procedure: To elicit a functional response such as SP release, innervated TE cornea constructs were treated with capsaicin or veratridine. Briefly, innervated tissue engineered corneas were treated with a total of 1.5 ml of SHEM containing 8.5% Tween 80 and 1.5% ethanol either alone (control) or with 1) 1% (w/v) capsaicin, or 2) 50 μM veratridine. At 0, 1, 3, 6, 12 and 24 hours post-treatment, culture supernatants were collected, flash frozen in liquid nitrogen and stored at −80° C. Substance P content of the medium was measured using a substance P specific competitive peptide enzyme immunoassay (EIA) kit (Peninsula Laboratories). […] All groups, n 3. *P<0.001 versus control (2-way ANOVA).

[2] = tested on: nerve bundles growing into the cornea; assay: Electrophysiological recording of evoked action potentials in TE corneas; format: cell-based, chick; details: 50 mM lidocaine HCl; stimulation of ganglion cell cluster
From the text: Direct electrophysiological recording from the corneal epithelium was therefore conducted to confirm that nerve bundles growing into the cornea were able to conduct lidocaine-sensitive action potentials that were evoked by stimulation of the ganglion cell cluster (FIG. 3C, D). Tissue engineered corneas were transferred into an interface recording chamber, perfused with artificial saline containing (in mM): NaCl: 126, KCl: 3.0, MgSO4: 2.0, NaHCO3: 26, NaH2PO4 1.25, CaCl2: 2.0, dextrose: 10, oxygenated with 95% O2/5% CO2 at room temperature. Cathodal stimulation of ganglion cell clusters was done using silver wires pressed lightly against the surface and applying square wave stimulus pulses of 50 μs duration and typically 60-80 V in amplitude. Differential recordings of electrical responses from nerve fibre bundles were recorded with glass micropipettes (≈50 μm tips) filled with 150 mM NaCl. Because of the close proximity of the stimulation to the recording electrodes, a very large stimulus artefact was generated that obscured the very small action potentials (FIG. 3C, the action potential is indicted by the arrow).
To observe action potentials in isolation, evoked responses were recorded before and after addition of 50 mM lidocaine HCl. […]

neutrophils = assay: Zymographic detection of metalloproteases; format: cell-based; details: neutrophils added on top of collagen matrix
Procedure: Metalloproteinases MMPs) are a family of closely related zinc-containing enzymes whose principal function is thought to be an integral part of generalized tissue remodeling as well as the formation of new blood vessels. Zymography has the advantage that in addition to detecting enzyme activity it can be used to provide information about the molecular weight of an enzyme and so help identify the enzyme. To achieve this dissolved gelatin is incorporated into a polyacrylamide gel, samples are added to the gel, separated by electrophoresis and the gel allowed to incubate for a while to allow the enzymes to degrade the gelatin. When the gels are stained for proteins clear lysis bands are apparent where the metalloproteinases have degraded the gelatin.

CC(=O)OC/C=C(C)/C=C/C=C(C)/C=C/C1=C(C)CCCC1(C)C [RA, Retinyl acetate] was tested, and the “number of blood vessels” value (HUVEC; high levels of RA) was “decreased” and the “Blood vessel formation (number of vessels)” value (HUVEC; various concentrations of RA) was “increases in a dose dependent fashion and is optimal at an intermediate range”.
In the case of COc1cc(CNC(=O)CCCC/C=C/C(C)C)ccc1O [capsaicin], the “release of SP versus controls” value ([1]; 1% (w/v) capsaicin, 1, 3, 6, 12 and 24 hours, P<0.001) is reported as “significantly greater”, the “SP release versus controls” value ([1]; 6 hours post-treatment) is reported as “significant increase” and the “SP release versus controls” value ([1]; 24 hours post-treatment) is reported as “significant increase”.
With CCN(CC)CC(=O)Nc1c(C)cccc1C [lidocaine] the “sensitivity of evoked action potentials” value [2] was “lidocaine-sensitive”.
For formyl-Met-Leu-Phe [FMLP], the “stimulation of neutrophils (MMP-2 and MMP-9 detected)” value (neutrophils) was “able to stimulate them”.
